Our source for the Ki values is patent US10208021B2, “Substituted tetrahydroisoquinoline compounds as factor XIa inhibitors” (BRISTOL-MYERS SQUIBB COMPANY, priority 2011, dated 2019).

SMILES strings stand for the structures. Where a name gives a salt, the structure may show the parent alone.

purified human Factor XIa, sequence (P03951 388-625): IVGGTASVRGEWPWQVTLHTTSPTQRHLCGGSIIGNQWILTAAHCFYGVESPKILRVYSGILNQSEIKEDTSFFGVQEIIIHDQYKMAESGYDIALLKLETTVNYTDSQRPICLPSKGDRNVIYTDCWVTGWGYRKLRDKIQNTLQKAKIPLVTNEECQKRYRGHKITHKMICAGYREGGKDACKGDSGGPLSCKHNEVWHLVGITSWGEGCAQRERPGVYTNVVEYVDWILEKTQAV
purified human Factor XIa, sequence (P03951 19-387 partner): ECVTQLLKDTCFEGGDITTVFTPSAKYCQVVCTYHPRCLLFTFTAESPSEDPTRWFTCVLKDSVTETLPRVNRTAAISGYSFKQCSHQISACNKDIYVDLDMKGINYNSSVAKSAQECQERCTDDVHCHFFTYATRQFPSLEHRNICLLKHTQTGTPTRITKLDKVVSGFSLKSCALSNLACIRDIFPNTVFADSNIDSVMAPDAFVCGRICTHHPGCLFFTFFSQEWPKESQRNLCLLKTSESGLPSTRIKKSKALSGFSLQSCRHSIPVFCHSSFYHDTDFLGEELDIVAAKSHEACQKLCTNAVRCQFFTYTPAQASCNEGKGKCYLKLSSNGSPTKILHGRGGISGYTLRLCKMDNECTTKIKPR

The first test has as its target purified human Factor XIa (Homo sapiens (Human), UniProt P03951). Nature of the test: Factor XIa chromogenic substrate (S-2366) inhibition assay. The test is classed as biochemical. As to conditions: substrate S-2366, Table 1. Put shortly:
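Ki derived from reaction velocities measured in the presence of inhibitor. Purified protease hydrolysed the chromogenic substrate; rate of absorbance change was followed over 20-180 minutes, depending on the protease.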
Broadly, the Ki is the dissociation constant of the complex between target and ligand, obtained from inhibition or displacement. Read a low Ki as tighter binding. For `O=C(Nc1ccc(F)cc1)C1c2cccc(N3CCC(N4CCCC4)CC3)c2CCN1C(=O)C=Cc1c(-n2cnnn2)ccc(Cl)c1F` (stereo not drawn) [Example 90], the inhibitory constant (Ki) turned out to be 314 nM.
Take `CCOC(=O)c1ccc(NC(=O)C2c3cccc(N4CCC(N5CCCC5)CC4)c3CCN2C(=O)C=Cc2c(-n3cnnn3)ccc(Cl)c2F)cc1` (stereo not drawn) [Example 94]: the Ki was under 5 nM.
Still for that read-out and setting: the value for `COC(=O)Nc1ccc(NC(=O)C2c3cccc(N4CCC(N5CCCC5)CC4)c3CCN2C(=O)C=Cc2c(-n3cnnn3)ccc(Cl)c2F)cc1` (stereo not drawn) [Example 98] was 632 nM.
Turning to `O=C(O)c1ccc(NC(=O)C2c3cccc(N4CCC(N5CCCC5=O)CC4)c3CCN2C(=O)C=Cc2c(-n3cnnn3)ccc(Cl)c2F)cc1` (stereo not drawn) [Example 119], the Ki is under 5 nM.
The same measure, in the same setting: the value for `CCOC(=O)c1ccc(NC(=O)C2c3cccc(N4CCC(N5CCCC5=O)CC4)c3CCN2C(=O)C=Cc2c(-n3cnnn3)ccc(Cl)c2F)cc1` (stereo not drawn) [Example 125] was 1010 nM.
Same read-out and setting: the value for `CCOC(=O)c1ccc(NC(=O)[C@H]2c3cccc(N4CCC(N(C)C)CC4)c3CCN2C(=O)/C=C/c2c(-n3cnnn3)ccc(Cl)c2F)cc1` [Example 128] was 133 nM.

Still in this test, the particulars now being: substrate S-2366, activity ranges, Table A.
In turn, `NC(=O)c1ccc(NC(=O)C2c3cccc(N4CCNCC4)c3CCN2C(=O)/C=C/c2cc(Cl)c(F)cc2-n2cnnn2)cc1` (stereo not drawn) [Example 66, (E)-N-(4-carbamoylphenyl)-2-(3-(5-chloro-4-fluoro-2-(1H-tetrazol-1-yl)phenyl)acryloyl)-5-(piperazin-1-yl)-1,2,3,4-tetrahydroisoquinoline-1-carboxamide, bis-TFA Salt] came in with an inhibitory constant (Ki) of 5 to 10 nM.
Consider `CC1(C)Cc2c(cccc2N2CCNCC2)C(C(=O)Nc2ccc(C(=O)O)cc2)N1C(=O)/C=C/c1c(-n2cnnn2)ccc(Cl)c1F` (stereo not drawn) [Example 78, (E)-4-(2-(3-(3-chloro-2-fluoro-6-(1H-tetrazol-1-yl)phenyl)acryloyl)-3,3-dimethyl-5-(piperazin-1-yl)-1,2,3,4-tetrahydroisoquinoline-1-carboxamido)benzoic acid, bis-TFA Salt], for which the Ki is under 5 nM.
On the same count and under the same terms, next, `CC(=O)c1ccc(Cl)c(F)c1/C=C/C(=O)N1CCc2c(cccc2N2CCN(C)CC2)C1C(=O)Nc1ccc(C(=O)O)cc1` (stereo not drawn) [Example 79, (E)-4-(2-(3-(6-acetyl-3-chloro-2-fluorophenyl)acryloyl)-5-(4-methylpiperazin-1-yl)-1,2,3,4-tetrahydroisoquinoline-1-carboxamido)benzoic acid, bis-TFA Salt]: under 5 nM.
`O=C(O)c1ccc(NC(=O)C2c3cccc(N4CCC(N5CCCC5)CC4)c3CCN2C(=O)/C=C/c2c(-n3cnnn3)ccc(Cl)c2F)cc1` (stereo not drawn) [Example 80, (E)-4-(2-(3-(3-Chloro-2-fluoro-6-(1H-tetrazol-1-yl)phenyl)acryloyl)-5-(4-(pyrrolidin-1-yl)piperidin-1-yl)-1,2,3,4-tetrahydroisoquinoline-1-carboxamido)benzoic acid, bis TFA Salt] returned an inhibition constant Ki of under 5 nM.
The molecule `O=C(Nc1ccc(F)cc1)C1c2cccc(N3CCC(N4CCCC4)CC3)c2CCN1C(=O)C=Cc1c(-n2cnnn2)ccc(Cl)c1F` (stereo not drawn) [Example 86] registered a Ki of under 5 nM.
Same read-out and setting: the value for `O=C(O)c1ccc(NC(=O)C2c3cccc(N4CCC(N5CCCC5)CC4)c3CCN2C(=O)C=Cc2c(-n3cnnn3)ccc(Cl)c2F)cc1` (stereo not drawn) [Example 87] was under 5 nM; that for `O=C(O)c1ccc(NC(=O)C2c3cccc(N4CCC(N5CCCC5)CC4)c3CCN2C(=O)C=Cc2c(-n3cnnn3)ccc(Cl)c2F)cc1` (stereo not drawn) [Example 88] was 5 to 10 nM.
As to `CCOC(=O)c1ccc(NC(=O)C2c3cccc(N4CCC(N5CCCC5)CC4)c3CCN2C(=O)C=Cc2c(-n3cnnn3)ccc(Cl)c2F)cc1` (stereo not drawn) [Example 93], the inhibition constant Ki was 5 to 10 nM.
`COC(=O)Nc1ccc(NC(=O)C2c3cccc(N4CCC(N5CCCC5)CC4)c3CCN2C(=O)C=Cc2c(-n3cnnn3)ccc(Cl)c2F)cc1` (stereo not drawn) [Example 99] registered an inhibitory constant (Ki) of under 5 nM.
On the same count and under the same terms, the value for `CN(C)C(=O)C1CCN(c2cccc3c2CCN(C(=O)C=Cc2c(-n4cnnn4)ccc(Cl)c2F)C3C(=O)Nc2ccc(C(=O)O)cc2)CC1` (stereo not drawn) [Example 101] was under 5 nM.
On the same count and under the same terms, next, `CCOC(=O)c1ccc(NC(=O)C2c3cccc(N4CCC5(CCN(C)C5=O)CC4)c3CCN2C(=O)C=Cc2c(-n3cnnn3)ccc(Cl)c2F)cc1` (stereo not drawn) [Example 110]: 5 to 10 nM; `O=C(Nc1ccc(Cl)cc1)C1c2cccc(N3CCC(N4CCCC4)CC3)c2CCN1C(=O)C=Cc1c(-n2cnnn2)ccc(Cl)c1F` (stereo not drawn) [Example 111]: 500 to 5000 nM.
On the same count and under the same terms, next, `O=C(Nc1ccc(Cl)cc1)C1c2cccc(N3CCC(N4CCCC4)CC3)c2CCN1C(=O)C=Cc1c(-n2cnnn2)ccc(Cl)c1F` (stereo not drawn) [Example 112]: under 5 nM; `CCCCOC(=O)c1ccc(NC(=O)C2c3cccc(N4CCC(N5CCCC5)CC4)c3CCN2C(=O)C=Cc2c(-n3cnnn3)ccc(Cl)c2F)cc1` (stereo not drawn) [Example 113]: 100 to 500 nM; `CCCCOC(=O)c1ccc(NC(=O)C2c3cccc(N4CCC(N5CCCC5)CC4)c3CCN2C(=O)C=Cc2c(-n3cnnn3)ccc(Cl)c2F)cc1` (stereo not drawn) [Example 114]: under 5 nM.
Take `O=C(O)c1ccc(NC(=O)C2c3cccc(N4CCC(N5CCCC5=O)CC4)c3CCN2C(=O)C=Cc2c(-n3cnnn3)ccc(Cl)c2F)cc1` (stereo not drawn) [Example 118]: the inhibition constant (Ki) lay within 5 to 10 nM.
The same measure, in the same setting: the value for `CCOC(=O)c1ccc(NC(=O)[C@@H]2c3cccc(N4CCC(N(C)C)CC4)c3CCN2C(=O)/C=C/c2c(-n3cnnn3)ccc(Cl)c2F)cc1` [Example 129] was under 5 nM.
The same measure, in the same setting: the value for `O=C(O)c1ccc(NC(=O)[C@H]2c3cccc(N4CCC(C(=O)N5CCCC5)CC4)c3CCN2C(=O)/C=C/c2c(-n3cnnn3)ccc(Cl)c2F)cc1` [Example 132] was 100 to 500 nM; that for `O=C(O)c1ccc(NC(=O)[C@@H]2c3cccc(N4CCC(C(=O)N5CCCC5)CC4)c3CCN2C(=O)/C=C/c2c(-n3cnnn3)ccc(Cl)c2F)cc1` [Example 133] was under 5 nM; that for `CCOC(=O)c1ccc(NC(=O)[C@@H]2c3cccc(N4CCC(C(=O)N5CCCC5)CC4)c3CCN2C(=O)/C=C/c2c(-n3cnnn3)ccc(Cl)c2F)cc1` [Example 135] was under 5 nM.
Still for that read-out and setting: next, `O=C(O)c1ccc(NC(=O)[C@@H]2c3cccc(N4CCC(N5CCOCC5)CC4)c3CCN2C(=O)/C=C/c2c(-n3cnnn3)ccc(Cl)c2F)cc1` [Example 139]: under 5 nM; `O=C(O)c1ccc(NC(=O)[C@@H]2c3cccc(N4CCC(C(=O)N5CCOCC5)CC4)c3CCN2C(=O)/C=C/c2c(-n3cnnn3)ccc(Cl)c2F)cc1` [Example 141]: under 5 nM.
`O=C(O)c1ccc(NC(=O)[C@@H]2c3cccc(N4CCC5(CC4)OCCO5)c3CCN2C(=O)/C=C/c2c(-n3cnnn3)ccc(Cl)c2F)cc1` [Example 143] yielded a Ki of under 5 nM.
Same read-out and setting: the value for `COC(=O)c1ccc(NC(=O)[C@@H]2c3cccc(N4CCC5(CC4)OCCO5)c3CCN2C(=O)/C=C/c2c(-n3cnnn3)ccc(Cl)c2F)cc1` [Example 144] was under 5 nM.
`O=C(O)c1ccc(NC(=O)[C@@H]2c3cccc(N4CCC(O)CC4)c3CCN2C(=O)/C=C/c2c(-n3cnnn3)ccc(Cl)c2F)cc1` [Example 149] had a Ki of under 5 nM.
The same measure, in the same setting: next, `COC1CCN(c2cccc3c2CCN(C(=O)/C=C/c2c(-n4cnnn4)ccc(Cl)c2F)[C@@H]3C(=O)Nc2ccc(C(=O)O)cc2)CC1` [Example 151]: under 5 nM; `N#Cc1ccc(Cl)c(F)c1C=CC(=O)N1CCc2c(cccc2N2CCC(N3CCCC3)CC2)C1C(=O)Nc1ccc(C(=O)O)cc1` (stereo not drawn) [Example 163]: 5 to 10 nM.
